Laboratory results taken from paper PMC6300130 (Journal of medicinal chemistry, 2018).
Several values for one entry are separate records, joined by “and”; a condition that tells them apart may be missing. Identical values can stand only once. Like-named read-outs stand apart in the source and are kept apart here.

What was measured:
[1] = Tolerability in mice during efficacy study; type: in vivo, mouse; conditions: 20 and 50 mg/kg ip daily for 5 days
[2] = system: P. falciparum had1 mutant strain; assay: Growth inhibition of had1 mutant P. falciparum; type: cell-based, Plasmodium falciparum; conditions: for sensitivity in had1 + HAD1-GFP strain: mutant supplied with wild-type copy of HAD1
[3] = system: MEP pathway metabolites in P. falciparum 3D7 parasites; assay: MEP pathway metabolite profiling by LC-MS/MS; type: cell-based, Plasmodium falciparum; conditions: 5× the IC50 value, 10 h
P. falciparum strain 3D7 [4] = assay: IPP rescue of inhibitor-treated P. falciparum; type: cell-based, Plasmodium falciparum; conditions: 125 μM IPP, 72 h
Mtb = conditions: cited from earlier work
[5] = system: Mycobacterium tuberculosis (Mtb) DXR; conditions: cited from earlier work
[6] = cited from earlier work
HepG2 cells = assay: HepG2 cytotoxicity; type: cell-based, human; conditions: HepG2 IC50/P. falciparum IC50
[7] = system: P. falciparum had1 mutant strain; conditions: cited from earlier work
P. falciparum strain 3D7 [8] = conditions: cited from earlier work

CC(C)(C)C(=O)OCOP(=O)(/C=C/CN(O)C=O)OCOC(=O)C(C)(C)C [18a, [({[(2,2-Dimethylpropanoyl)oxy]methoxy}[(1E)-3-(N-hydroxyformamido)prop-1-en-1-yl]phosphoryl)oxy]methyl 2,2-Dimethylpropanoate]
tolerability in mice [1]: no adverse effects were observed | sensitivity in had1 + HAD1-GFP strain [2]: restored | DOXP level, treated vs untreated parasites [3]: did not show significant difference | rescue of growth by exogenous IPP (P. falciparum strain 3D7 [4]): effectively rescues growth

CC(=O)N(CCCP(=O)(OCOC(=O)C(C)(C)C)OCOC(=O)C(C)(C)C)OCc1ccc2ccccc2c1 [compound 5]
Mtb MIC99 (Mtb): 18.75 μg/mL and 33.2 μM

CC(=O)N(O)C/C=C/P(=O)([O-])O.[Na+] [compound 2]
increase in potency against Mtb DXR compared with FR900098 [5]: 2 fold | IC50 ([5]; read-out: Mtb DXR IC50): 1070 nM

CC(=O)N(O)C/C=C/P(=O)(OCOC(=O)C(C)(C)C)OCOC(=O)C(C)(C)C [compound 3]
Mtb MIC99 (Mtb): 9.4 μg/mL and 22 μM | in vivo antimalarial activity [6]: potent in vivo antimalarial activity

O=CN(O)C/C=C/P(=O)([O-])O.[Na+] [12a, Sodium Hydrogen [(1E)-3-(N-Hydroxyformamido)prop-1-en-1-yl]phosphonate]
SI^Pf selectivity index (HepG2 cells): > 2632 | sensitivity in had1 + HAD1-GFP strain [2]: restored | rescue of growth by exogenous IPP (P. falciparum strain 3D7 [4]): effectively rescues growth

CC(=O)N(C/C=C/P(=O)([O-])O)OCc1ccc(C(C)C)cc1.[Na+] [16e]
resistance of had1 parasites compared with wild-type ([2]; words): more resistant | rescue of growth by exogenous IPP (P. falciparum strain 3D7 [4]): restored by IPP supplementation

O=CN(O)CCCP(=O)([O-])O.[Na+] [1a, Fosmidomycin]
resistance of had1 parasites [7]: resistant | rescue of growth by exogenous IPP (P. falciparum strain 3D7 [8]): restoration effect
